Assays:
[1] = system: primary cultured astrocytes from WT and 5×FAD pups; test: PTH1-34 induced signaling in primary cultured astrocytes (Western blot); assay type: cell-based, mouse; settings: 100 ng/ml PTH1-34, time course
Protocol: Total proteins from cortex, hippocampus, or cultured astrocytes were extracted using RIPA lysis buffer [50 mM Tris-HCl (pH7.5), 150 mM NaCl, 1 mM EDTA, 1% v/v NP-40, 0.1% SDS, 1% sodium deoxycholate supplemented with Protease Inhibitor Cocktail (Roche) and 1 mM PMSF] and analyzed by Western Blot. Lysates were cleared by centrifugation at 12,000 g for 15 min at 4° C. to remove debris and to obtain homogenates. Homogenates samples were resolved by SDS-PAGE (8˜15%) gels and then electroblotted onto nitrocellulose membranes (Cat #1620112, Bio-Rad Laboratories). Membranes were blocked with 5% BSA (w/v) in TBS-Tween (50 mM Tris, 150 mM NaCl, pH7.6 and 0.1% v/v Tween-20) for 1 h and then probed with indicated primary antibodies overnight in 4° C. Membranes were washed with TBST 4 times and incubated with HRP-conjugated secondary antibodies (1:5000 in TBST) at room temperature for 1 h. After washing with TBST 3 times, antibody reactivity was detected by the Enhanced Chemiluminescence (ECL) detection system (Amersham Biosciences). Band density of proteins was normalized in relation to loading control and analyzed using NIH ImageJ software. Primary anti-bodies used were as follows: IBA1 (ab178846, rabbit), p16 (ab51243, rabbit), p53 (ab131442, rabbit), and anti-beta Actin (ab8226, mouse) from Abcam (Cambridge, MA, USA); GFAP (12389, rabbit), p-CREB (Ser133) (9198S, rabbit), p-AKT(S473) (4060P, rabbit), AKT (9272S, rabbit) and GAPDH (97166S, mouse) from Cell Signaling (Danvers, MA, USA); PTH1R (PA5-77,689, rabbit) from Invitrogen (Carlsbad, CA, USA); p-ERK1/2 (sc-136521, mouse) and ERK1/2 (sc-514302, mouse) from Santa Cruz Biotechnology (Santa Cruz, CA, USA).
Astrocyte culture was performed according to the standard protocol with some modifications as described in previous literature. In brief, the cerebral cortex and hippocampus of postnatal day 3 (P3) female pups were dissected under a stereomicroscope and placed in ice-cold calcium- and magnesium-free HBSS (Hanks Balanced Salt Solution). […]

PYD (pyridinoline) = test: Serum PYD ELISA (bone resorption marker); assay type: in vivo, mouse; settings: 6-MO female 5×FAD mice, compared to WT controls; 50 μg/Kg s.c. intermittent
Protocol: (§1) Parathyroid hormone (human) was purchased from TOCRIS Bioscience (Cat #3011/1, Abingdon, United Kingdom). WT or 5×FAD mice (both male and female) were treated with PTH1-34 intermittently [once daily injection of hPTH1-34 (50 μg/Kg) or vehicle (0.9% sodium chloride) (as a control) by subcutaneous injection, starting at 2-MO, 5 days per week] as described previously. Mice were then subjected to behavioral tests and sacrificed for examinations of their bone and brain phenotypes at the indicated ages.
Submandibular blood collection was performed in anesthetized mice. A swift lancing motion is used to puncture the vessel. Blood sample (up to 200 μl) was collected with a pipette or other collection tube, allowed to stand at room temperature for 30 min and centrifuged for 15 min at 3000 rpm. Supernatant serum was aliquot and frozen at −80° C. until use. Mouse serum levels of osteocalcin (a marker for bone formation), PYD (pyridinoline, a marker for bone resorption), and PTH were measured using mouse osteocalcin Elisa kit (QUIDEL Corporation), METRA Serum PYD EIA kit (QUIDEL Corporation, San Diego, CA, USA), and mouse PTH Elisa kit (MyBioSource), respectively, following the manufacturers' instruction.

[2] = system: proinflammatory cytokines and chemokines; test: qRT-PCR of proinflammatory cytokines and chemokines in cortex and hippocampus; assay type: in vivo, mouse; settings: 6-MO 5×FAD female mice
Protocol: as §1
Total RNA was extracted from cortex, hippocampus, or cultured astrocytes using a TRizol reagent (Invitrogen, cat #15596-026, Carlsbad, CA, USA) as previously described. Purified RNA (1-5 μg) was used for cDNA synthesis with the Revert Aid First Strand cDNA Synthesis Kit (Thermo Scientific, cat #K1621, Waltham, MA, USA). The cDNA products were subjected to subsequent quantitative PCR (qPCR) using the QuantiFast SYBR Green PCR Kit (QIA-GEN, cat #204057, Hilden, Germany) with a qPCR System (StepOne Plus). Each sample was repeated at least 3 times, and the mRNA level was normalized to GAPDH using the 2^−ΔΔCt method.

IBA1 and GFAP = test: Western blot of IBA1 and GFAP in cortex and hippocampus homogenates; assay type: in vivo, mouse; settings: 5×FAD brain homogenates (cortex and hippocampus), 6-MO female
Protocol: as §1
Total proteins from cortex, hippocampus, or cultured astrocytes were extracted using RIPA lysis buffer [50 mM Tris-HCl (pH7.5), 150 mM NaCl, 1 mM EDTA, 1% v/v NP-40, 0.1% SDS, 1% sodium deoxycholate supplemented with Protease Inhibitor Cocktail (Roche) and 1 mM PMSF] and analyzed by Western Blot. Lysates were cleared by centrifugation at 12,000 g for 15 min at 4° C. to remove debris and to obtain homogenates. Homogenates samples were resolved by SDS-PAGE (8˜15%) gels and then electroblotted onto nitrocellulose membranes (Cat #1620112, Bio-Rad Laboratories). […] After washing with TBST 3 times, antibody reactivity was detected by the Enhanced Chemiluminescence (ECL) detection system (Amersham Biosciences). Band density of proteins was normalized in relation to loading control and analyzed using NIH ImageJ software. […]

5×FAD mice = test: Morris water maze (MWM); assay type: in vivo, mouse
Protocol: Parathyroid hormone (human) was purchased from TOCRIS Bioscience (Cat #3011/1, Abingdon, United Kingdom). […] Mice were then subjected to behavioral tests and sacrificed for examinations of their bone and brain phenotypes at the indicated ages. For Morris water maze (MWM), a circular water tank (diameter of 120 cm) fulfilled with water and a 10 cm platform were used. Non-toxic white powder paint was added to water to make the surface opaque to hide the escape platform. The maze was virtually divided into 4 quadrants, one of which contained the platform 1 cm below the water surface as an escape platform. Mice were trained for 5 days, four trials per day with 20 min intervals between trials and 60 s per trial to locate the hidden platform. Then mice were left on the platform for 15 s to help them remember the location. On the 6th day, the escape platform was removed and mice were placed in water at the point farthest from the platform and recorded for 60 s. The swimming track was recorded using a video tracking system, and the time spent in each platform quadrant and the number of platform crossings were quantified. All behavioral trials were recorded by use of an overhead camera and analyzed by Etho Vision software (Etho Vision, Noldus). Mice were assigned and data were quantified, in a double-blind method.

## CC[C@H](C)[C@H](NC(=O)[C@H](CCC(=O)O)NC(=O)[C@H](CO)NC(=O)[C@@H](NC(=O)[C@@H](N)CO)C(C)C)C(=O)N[C@@H](CCC(N)=O)C(=O)N[C@@H](CC(C)C)C(=O)N[C@@H](CCSC)C(=O)N[C@@H](Cc1cnc[nH]1)C(=O)N[C@@H](CC(N)=O)C(=O)N[C@@H](CC(C)C)C(=O)NCC(=O)N[C@@H](CCCCN)C(=O)N[C@@H](Cc1cnc[nH]1)C(=O)N[C@@H](CC(C)C)C(=O)N[C@@H](CC(N)=O)C(=O)N[C@@H](CO)C(=O)N[C@@H](CCSC)C(=O)N[C@@H](CCC(=O)O)C(=O)N[C@@H](CCCN=C(N)N)C(=O)N[C@H](C(=O)N[C@@H](CCC(=O)O)C(=O)N[C@@H](Cc1c[nH]c2ccccc12)C(=O)N[C@@H](CC(C)C)C(=O)N[C@@H](CCCN=C(N)N)C(=O)N[C@@H](CCCCN)C(=O)N[C@@H](CCCCN)C(=O)N[C@@H](CC(C)C)C(=O)N[C@@H](CCC(N)=O)C(=O)N[C@@H](CC(=O)O)C(=O)N[C@H](C(=O)N[C@@H](Cc1cnc[nH]1)C(=O)N[C@@H](CC(N)=O)C(=O)N[C@@H](Cc1ccccc1)C(=O)O)C(C)C)C(C)C [PTH1-34]
[1]
  p-AKT protein level: little effect
  p-CREB protein level: increases p-CREB
  p-ERK protein level: little effect
PYD (pyridinoline)
  serum PYD levels: little to no effect on serum PYD levels in 5×FAD mice
[2]; cortex and hippocampus
  expression of upregulated inflammatory cytokines or chemokines (RT-qPCR): largely brought down to nearly normal levels
[2]; cortex
  expression of GM-CSF, RANKL and OPG (RT-qPCR): unaffected
IBA1 and GFAP
  GFAP protein level (Western blot): lower
  IBA1 protein level (Western blot): lower
5×FAD mice; 5×FAD female mice ~5-MO vs 5×FAD Veh
  MWM, latency to reach hidden platform during training: faster learning of the hidden platform during MWM tests
5×FAD mice; 5×FAD female mice ~5-MO vs 5×FAD Veh, testing day
  MWM, spatial memory (time in target quadrant, target zone crossovers): better spatial memory of the platform location
5×FAD mice; 5×FAD male mice ~5-MO vs Veh
  MWM, spatial learning and memory: Little to no improvement

Reference: US20240299504A1, “COMPOSITIONS AND METHODS FOR TREATING ALZHEIMERS DISEASE” (priority 2023, published 2024)
